From paper PMC5502055, “Phase II study of lanreotide autogel in Japanese patients with unresectable or metastatic well-differentiated neuroendocrine tumors” (Investigational New Drugs, 2017)
Like-named read-outs stand apart in the source and are kept apart here.

Legend:
[1] = system: Japanese patients with grade (G) 1/G2 NET; assay: Phase II and extension study: anti-tumor efficacy by RECIST ver. 1.1 (CBR, PFS, OS, ORR, sum of target lesion diameters); assay type: in vivo, human
Description: A phase II, multicenter, single-arm study was conducted at 10 sites in Japan. Patients were treated via deep subcutaneous (buttocks) injection of lanreotide at a dosage of 120 mg once every 4 weeks for a 48-week period. Patients who completed the phase II study were enrolled in an additional multicenter single-arm extension study that used the same dosage and injection methods and involved 7 of the 10 initial sites.
Japanese patients with G1 or 2 (mild/moderate malignancy) NET and an age of ≥20 years were selected for the phase II study according to the World Health Organization (WHO) 2010 classification except for those whose primary tumors were located in the lungs, bronchi, or thymus (according to the WHO 2004 classification). Other inclusion criteria were the following: metastatic disease and/or a locally advanced inoperable tumor, or refusal of surgery, and target lesions based on the Response Evaluation Criteria in Solid Tumors (RECIST) ver.1.1, and a score of 0–2 on the WHO performance status. The exclusion criteria are described in the Electronic Supplementary Material. These criteria allowed the enrolment of the same target population as that of the CLARINET study: patients with G1 or 2 NET with primary tumor sites in the pancreas, midgut, hindgut, or unknown; non-functional NET except gastrinomas adequately controlled by proton pump inhibitors for 4 months or longer; and absence of multiple endocrine neoplasia.
The primary endpoint was the clinical benefit rate (CBR) at 24 weeks after the first injection, which served to indicate and confirm the anti-tumor effects of lanreotide. The CBR was defined as the percentage of patients in the analysis set who achieved a complete response or partial response (PR) as the best overall response, or those who maintained stable disease (SD) over 24 weeks after the first injection by central review. Secondary efficacy endpoints were progression-free survival (PFS), overall survival (OS), objective response rate (ORR), and the percent change from baseline in the sum of the diameters of target lesion from baseline. The PFS was defined as the time from the first injection until progressive disease (PD) or death. Regarding tumor lesion imaging ≥4 weeks before the baseline, the investigators evaluated computed tomography (CT) or magnetic resonance imaging (MRI) data based on the RECIST (ver. 1.1). To evaluate anti-tumor effects after baseline, CT or MRI data were evaluated centrally by an independent third party based on the RECIST (ver. 1.1). During the study period, images of each patient were determined using the same method (CT or MRI), according to the standardized procedure at each site. CT or MRI was conducted every 12 weeks from the first injection. Regarding quality of life (QOL), patients completed the European Organization for Research and Treatment of Cancer (EORTC) QOL questionnaire (QLQ)-C30 (ver. 3.0) every 12 weeks during the 48 -week period after the first injection and every 24 weeks thereafter.
(§1) Full analysis set (FAS) and CLARINET-like FAS which was satisfied eligibility criteria of the CLARINET study were used for efficacy analysis. Safety analysis set which included patients who had received the study drug at least once was used for safety analysis. Per protocol set (PPS) was used for pharmacokinetic analysis.
In the primary analysis, the CBR point estimate at 24 weeks after the first injection and an exact F distribution-based 95% confidence interval (CI) were calculated. The CBR was selected as the primary endpoint, because maintaining SD was deemed beneficial and clinically meaningful for NET patients. In the secondary analysis, Kaplan–Meier curves of PFS and OS were prepared, and median values and 95% CIs were calculated. The ORRs at 24, 48, and 60 weeks after the first injection were also calculated. […]

[2] = Pharmacokinetics: serum lanreotide concentration (radioimmunoassay); assay type: in vivo, human
Description: as §1
Regarding pharmacokinetics evaluations, serum lanreotide concentrations were determined on the day of first administration (before and 2 and 4 h after administration of the study drug) and at 4, 8, 12, 16, and 20 (before and 2 and 4 h after administration of the study drug), 24, 36, and 48 weeks after the start of administration (or at the time of discontinuation). Serum lanreotide concentrations were centrally determined using a validated radioimmunoassay (RIA; Kymos Pharma Services S.L., Barcelona, Spain).

[3] = CLARINET study; cited from earlier work
Excerpt: No interracial differences were observed regarding drug concentrations in the blood. This inter-study difference in the number of treatment required to achieve steady state is attributed to the associated with the low num ...

[4] = FAS n=28, printed as decreased by

With `CC(C)[C@@H]1NC(=O)[C@H](CCCCN)NC(=O)[C@@H](Cc2c[nH]c3ccccc23)NC(=O)[C@H](Cc2ccc(O)cc2)NC(=O)[C@@H](NC(=O)[C@H](N)Cc2ccc3ccccc3c2)CSSC[C@@H](C(=O)N[C@H](C(N)=O)[C@@H](C)O)NC1=O` [lanreotide] the “clinical benefit rate (CBR) at 24 weeks after the first injection” value ([1]; 120 mg deep s.c. every 4 weeks, full analysis set, 18/28 patients, 95% CI 44.1%, 81.4%, central review) was 64.3%, the “CBR at 24 weeks after the first injection” value ([1]; CLARINET-like FAS, 15/22 patients, 95% CI 45.1%, 86.1%) was 68.2% and the “median PFS” value ([1]; FAS n=28, Kaplan-Meier) was 9.1 months. The “median PFS” value ([1]; FAS n=28, Kaplan-Meier, 95% CI 24.1, 53.1 weeks) was 36.3 weeks, the “percentage change from baseline in sum of diameters of target lesion at best time point, mean ± SD (decrease)” value [1, 4] was 3.6 ± 21.3% and the “percentage change from baseline in sum of diameters of target lesion at best time point, minimum value (decrease)” value [1, 4] was 58.5%. The “percentage change from baseline in sum of diameters of target lesion at best time point, maximum value (increase)” value ([1]; FAS n=28, printed as increased by) was 53.4%, the “CBR Week 24” value ([1]; FAS subgroup Age (years) >65, 7/12) was 58.3 (7/12) % and the “Median time PFS” value ([1]; FAS subgroup Age (years) >65, N=12, median (95% CI)) was 36.64 weeks. For the same compound, the “CBR Week 24” value ([1]; FAS subgroup Age (years) ≤65, 11/16) was 68.8 (11/16) %, the “Median time PFS” value ([1]; FAS subgroup Age (years) ≤65, N=16, median (95% CI)) was 36.29 (12.29, 53.14) weeks and the “CBR Week 24” value ([1]; FAS subgroup Baseline TGR (%/month) <10, 10/13) was 76.9 (10/13) %. For the same compound, the “Median time PFS” value ([1]; FAS subgroup Baseline TGR (%/month) <10, N=13, median (95% CI)) was 59.43 weeks, the “CBR Week 24” value ([1]; FAS subgroup Baseline TGR (%/month) ≥10, 8/15) was 53.3 (8/15) % and the “Median time PFS” value ([1]; FAS subgroup Baseline TGR (%/month) ≥10, N=15, median (95% CI)) was 35.29 (12.14, 37.14) weeks. For the same compound, the “CBR Week 24” value ([1]; FAS subgroup Grade of tumor Grade 1, 5/9) was 55.6 (5/9) %, the “CBR Week 24” value ([1]; FAS subgroup Grade of tumor Grade 2, 13/19) was 68.4 (13/19) % and the “Median time PFS” value ([1]; FAS subgroup Grade of tumor Grade 2, N=19, median (95% CI)) was 36.29 (21.29, 49.14) weeks. The “CBR Week 24” value ([1]; FAS subgroup Hepatic tumor load (%) >10 and ≤25, 4/6) was 66.7 (4/6) %, the “Median time PFS” value ([1]; FAS subgroup Hepatic tumor load (%) >10 and ≤25, N=6, median (95% CI)) was 35.79 weeks and the “CBR Week 24” value ([1]; FAS subgroup Hepatic tumor load (%) >25 and ≤50, 1/3) was 33.3 (1/3) %. The “Median time PFS” value ([1]; FAS subgroup Hepatic tumor load (%) >25 and ≤50, N=3, median (95% CI)) was 25.14 (24.14, 37.14) weeks, the “CBR Week 24” value ([1]; FAS subgroup Hepatic tumor load (%) >50, 1/1) was 100.0 (1/1) % and the “CBR Week 24” value ([1]; FAS subgroup Hepatic tumor load (%) ≥0 and ≤10, 12/18) was 66.7 (12/18) %. The “Median time PFS” value ([1]; FAS subgroup Hepatic tumor load (%) ≥0 and ≤10, N=18, median (95% CI)) was 36.36 (21.29, 59.43) weeks, the “CBR Week 24” value ([1]; FAS subgroup Ki67 index (%) >2 and ≤5, 5/8) was 62.5 (5/8) % and the “Median time PFS” value ([1]; FAS subgroup Ki67 index (%) >2 and ≤5, N=8, median (95% CI)) was 42.72 weeks. The “CBR Week 24” value ([1]; FAS subgroup Ki67 index (%) >5 and <10, 8/9) was 88.9 (8/9) %, the “Median time PFS” value ([1]; FAS subgroup Ki67 index (%) >5 and <10, N=9, median (95% CI)) was 36.29 (21.29, 53.14) weeks and the “CBR Week 24” value ([1]; FAS subgroup Ki67 index (%) Unknown, 0/1) was 0.0 (0/1) %. For the same compound, the “Median time PFS” value ([1]; FAS subgroup Ki67 index (%) Unknown, N=1, 95% CI NC) was 12.14 weeks, the “CBR Week 24” value ([1]; FAS subgroup Ki67 index (%) ≤ 2, 5/8) was 62.5 (5/8) % and the “CBR Week 24” value ([1]; FAS subgroup Ki67 index (%) ≥10 and <20, 0/2) was 0.0 (0/2) %. The “Median time PFS” value ([1]; FAS subgroup Ki67 index (%) ≥10 and <20, N=2, median (95% CI)) was 12.07 (12.00, 12.14) weeks, the “CBR Week 24” value ([1]; FAS subgroup Sex Female, 6/9) was 66.7 (6/9) % and the “Median time PFS” value ([1]; FAS subgroup Sex Female, N=9, median (95% CI)) was 53.14 weeks. The “CBR Week 24” value ([1]; FAS subgroup Sex Male, 12/19) was 63.2 (12/19) %, the “Median time PFS” value ([1]; FAS subgroup Sex Male, N=19, median (95% CI)) was 36.14 (12.29, 49.14) weeks and the “CBR Week 24” value ([1]; FAS subgroup primary tumor site Foregut (except for pancreas), 0/1) was 0.0 (0/1) %. For the same compound, the “Median time PFS” value ([1]; FAS subgroup primary tumor site Foregut (except for pancreas), N=1, 95% CI NC) was 12.00 weeks, the “CBR Week 24” value ([1]; FAS subgroup primary tumor site Hindgut, 2/8) was 25.0 (2/8) % and the “Median time PFS” value ([1]; FAS subgroup primary tumor site Hindgut, N=8, median (95% CI)) was 22.65 (12.14, 49.14) weeks. The “CBR Week 24” value ([1]; FAS subgroup primary tumor site Midgut, 2/2) was 100.0 (2/2) %, the “CBR Week 24” value ([1]; FAS subgroup primary tumor site Other/ Unknown, 4/5) was 80.0 (4/5) % and the “Median time PFS” value ([1]; FAS subgroup primary tumor site Other/ Unknown, N=5, median (95% CI)) was 36.14 weeks. For the same compound, the “CBR Week 24” value ([1]; FAS subgroup primary tumor site Pancreas, 10/12) was 83.3 (10/12) %, the “Median time PFS” value ([1]; FAS subgroup primary tumor site Pancreas, N=12, median (95% CI)) was 36.79 (24.14, 59.43) weeks and the “CBR Week 24” value ([1]; FAS subgroup prior treatment for NET Absent, 6/6) was 100.0 (6/6) %. The “CBR Week 24” value ([1]; FAS subgroup prior treatment for NET Present, 12/22) was 54.5 (12/22) %, the “Median time PFS” value ([1]; FAS subgroup prior treatment for NET Present, N=22, median (95% CI)) was 36.22 (12.29, 49.14) weeks and the “CBR Week 24” value ([1]; FAS subgroup progressive disease at baseline Absent, 13/17) was 76.5% (13/17). For the same compound, the “Median time PFS” value ([1]; FAS subgroup progressive disease at baseline Absent, N=17, median (95% CI)) was 53.14 weeks, the “CBR Week 24” value ([1]; FAS subgroup progressive disease at baseline Present, 5/11) was 45.5% (5/11) and the “Median time PFS” value ([1]; FAS subgroup progressive disease at baseline Present, N=11, median (95% CI)) was 25.14 (12.00, 37.14) weeks. The “patients without increase in sum of diameters of target lesion at best time point” value ([1]; FAS, 16 of 28 patients) was 57.1%, the “patients with PR or SD as best overall response” value ([1]; FAS, 22 of 28 patients) was 78.6% and the “ORR at Week 60” value ([1]; FAS, 1 patient with PR at 60 weeks in extension study, 95% CI 0.1%, 18.3%) was 3.6%. For the same compound, the “median OS” value ([1]; Kaplan-Meier) was “not reached”, the “Forty-eight weeks survival rate” value ([1]; Kaplan-Meier estimate) was 96.4% and the “median PFS” value ([1]; population with PD at baseline (11 patients)) was 6.3 months. For the same compound, the “median PFS” value ([1]; population with PD at baseline (11 patients), 95% CI 12.0, 37.1 weeks) was 25.1 weeks, the “median PFS” value ([1]; population without PD at baseline (17 patients)) was 13.3 months and the “median PFS” value ([1]; population without PD at baseline (17 patients), 95% CI 24.1 weeks, Not calculable) was 53.1 weeks. For the same compound, the “number of doses to near-steady state” value ([2]; 120 mg every 4 weeks) was 3 doses, the Tmax ([2]; human, in vivo, injection at 20 weeks after the first injection, read-out: median time to reach the maximum serum concentration) was 3.8 h and the Tmax ([2]; human, in vivo, serum, PPS 28 patients, read-out: time of Cmax after the first injection (median)) was 3.9 h. It also gave a Cmax ([2]; human, in vivo, 120 mg every 4 weeks, PPS 28 patients, mean ± SD, read-out: Cmax at 20 weeks after the first injection) of 24.2 ± 20.2 ng/mL, a level at 672 h ([2]; human, serum, sc, 120 mg, PPS 28 patients, read-out: serum concentration at 4 weeks after the first injection, before injection (trough, mean ± SD)) of 3.1 ± 1.4 ng/mL and a level at 4032 h ([2]; human, serum, sc, 120 mg every 4 weeks, PPS 28 patients, mean ± SD, read-out: trough concentration at 24 weeks after the first injection) of 6.1 ± 3.3 ng/mL. For the same compound, the “Cmax after the first injection (mean ± SD)” value ([2]; serum, 120 mg deep s.c., PPS 28 patients, RIA) was 20.2 ± 18.2 ng/mL and the “number of injections to steady state” value [3] was 6 injections.
